Test results: PMC6445242, “Novel tetrazole and cyanamide derivatives as inhibitors of cyclooxygenase-2 enzyme: design, synthesis, anti-inflammatory evaluation, ulcerogenic liability and docking study” (Journal of Enzyme Inhibition and Medicinal Chemistry, 2017)
Entries after “also recorded” stand apart in the source; their conditions may differ.

Experiments:
[1] = biological target: T1, ovine COX-1 (Ovis aries, UniProt P05979); experiment: In vitro COX-1 inhibition assay (EIA kit, Cayman)
T1 sequence (P05979 25-600): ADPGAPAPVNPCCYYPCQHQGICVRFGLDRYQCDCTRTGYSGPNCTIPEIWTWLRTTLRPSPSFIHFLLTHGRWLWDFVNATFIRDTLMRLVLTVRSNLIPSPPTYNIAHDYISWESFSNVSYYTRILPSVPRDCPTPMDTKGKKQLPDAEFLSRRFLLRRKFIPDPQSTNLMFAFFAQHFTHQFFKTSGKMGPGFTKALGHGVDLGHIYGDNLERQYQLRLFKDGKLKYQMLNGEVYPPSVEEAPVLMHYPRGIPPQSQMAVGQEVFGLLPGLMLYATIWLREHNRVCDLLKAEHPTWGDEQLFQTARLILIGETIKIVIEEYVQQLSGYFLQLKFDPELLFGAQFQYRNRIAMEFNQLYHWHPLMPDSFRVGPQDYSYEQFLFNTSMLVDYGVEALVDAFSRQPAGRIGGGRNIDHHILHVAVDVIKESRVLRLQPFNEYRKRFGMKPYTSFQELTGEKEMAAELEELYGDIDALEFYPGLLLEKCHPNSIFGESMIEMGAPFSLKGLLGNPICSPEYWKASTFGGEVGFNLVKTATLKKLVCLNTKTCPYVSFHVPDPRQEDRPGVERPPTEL
Protocol: (§1) The peroxidase activity of cyclooxygenase enzyme isoforms was measured using the COX activity assay kit. The ability of the test compounds to inhibit both ovine COX-1 and COX-2 enzymes was explored in vitro using a colorimetric enzyme immunoassay (EIA) kit. The appearance of oxidised N,N,N′,N′-tetramethyl-p-phenylenediamine (TMPD) was monitored at 590 nm. The kit includes isozyme-specific inhibitors for distinguishing COX-2 activity from that of COX-1.

[2] = biological target: T2, ovine COX-2 (Ovis aries, UniProt P79208); experiment: In vitro COX-2 inhibition assay (EIA kit, Cayman); conditions: for IC50: IC50 COX-2, ovine COX-2, mean of two determinations; for SI, COX-2 selectivity index (COX-1 IC50/COX-2 IC50): ovine enzymes
T2 sequence (P79208 17-603): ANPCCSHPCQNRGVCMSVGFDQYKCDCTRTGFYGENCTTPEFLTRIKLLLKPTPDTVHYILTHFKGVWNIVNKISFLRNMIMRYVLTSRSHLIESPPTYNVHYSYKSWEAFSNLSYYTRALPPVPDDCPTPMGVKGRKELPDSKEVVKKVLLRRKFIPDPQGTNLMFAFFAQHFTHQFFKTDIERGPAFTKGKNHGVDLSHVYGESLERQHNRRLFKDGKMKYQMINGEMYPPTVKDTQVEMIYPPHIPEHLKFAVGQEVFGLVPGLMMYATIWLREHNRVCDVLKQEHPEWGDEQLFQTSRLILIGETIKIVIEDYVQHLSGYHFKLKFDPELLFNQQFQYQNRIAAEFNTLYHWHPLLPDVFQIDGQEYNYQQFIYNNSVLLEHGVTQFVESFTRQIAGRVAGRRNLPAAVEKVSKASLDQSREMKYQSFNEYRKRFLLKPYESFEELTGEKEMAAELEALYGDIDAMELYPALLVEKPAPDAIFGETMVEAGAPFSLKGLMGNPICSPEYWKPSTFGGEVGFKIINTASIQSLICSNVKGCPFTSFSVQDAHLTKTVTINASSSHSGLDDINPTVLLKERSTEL
Protocol: as §1

[3] = tested on: gastric mucosa (ulcer number, ulcer index); experiment: Ulcerogenic liability; assay type: in vivo, rat; conditions: 50 mg/kg oral, three successive days, rats; for Ulcer index: sum of % incidence, average severity and average number of ulcers
Protocol: Female wister rats (150–200 g) were used in this study. The animals were kept at controlled conditions (temperature 23 ± 2 °C, humidity 60 ± 10%) and a 12/12-h light/dark cycle with access to food and water. All procedures relating to animal care and treatments were performed according to protocols approved by the Research Ethical Committee of Faculty of Pharmacy Beni-Suef University (2014-Beni-Suef, Egypt).
[…]. Forty-eight rats were used in this study, divided into 12 groups and fasted for 18 h before drug administration. The control group received the vehicle (2.5% Tween 80). Other groups received test compounds, celecoxib or indomethacin at a dose of 50 mg/kg, then animals were fed after 2 h. Rats were given the specified dose orally for three successive days. Rats were sacrificed after 2 h of the last dose, then the stomach of each rat was removed and opened along the greater curvature for determination of the ulcer number and ulcer index according to the reported method.

[4] = tested on: abdominal writhings; experiment: Acetic acid-induced writhing test (peripheral analgesic activity); conditions: 10 mg/kg oral, mice, 0.6% acetic acid i.p.
Source text: Pain was induced by intraperitoneal injection of acetic acid, then counting the number of abdominal writhings.

[5] = tested on: rat's gastric tissue; experiment: Histopathological investigation of stomach; assay type: in vivo; conditions: haematoxylin and eosin, after ulcerogenic liability dosing
Protocol: Whole rats stomach were collected, selected stomach samples from each rat were fixed in 10% neutral buffered formalin for 48 h and routinely processed for paraffin embedding. 5 μm Thickness sections were obtained then stained with haematoxylin and eosin for histopathological evaluation.

[6] = tested on: carrageenan-induced paw oedema; experiment: Carrageenan-induced rat paw oedema; assay type: in vivo; conditions: 50 mg/kg oral; for %Inhibition of paw oedema, 1h / Paw thickness change mean ± SEM, 1h: 1 h after carrageenan; for Paw thickness change mean ± SEM, 1h / Paw thickness change mean ± SEM, 3h / Paw thickness change mean ± SEM, 5h: n = 4; for %Inhibition of paw oedema, 3h / Paw thickness change mean ± SEM, 3h: 3 h after carrageenan; for %Inhibition of paw oedema, 5h / Paw thickness change mean ± SEM, 5h: 5 h after carrageenan
Protocol: Female wister rats (150-200 g) were used in this study. The animals were kept at controlled conditions (temperature 23 ± 2 °C, humidity 60 ± 10%) and a 12/12-h light/dark cycle with access to food and water. All procedures relating to animal care and treatments were performed according to protocols approved by the Research Ethical Committee of Faculty of Pharmacy Beni-Suef University (2014-Beni-Suef, Egypt). The anti-inflammatory activity of the synthesised compounds was determined in vivo by […]-induced paw oedema method in rats[49]. Rats were divided into 21 groups of four animals each, and then, they were fasted overnight with free access to water before the experiment. Before any drug administration, thickness of the left hind paw of each rat was measured in millimetres. Group 1 served as a control and administered the vehicle (2.5% Tween 80).

[7] = tested on: latency time of pain response; experiment: Hot plate method (central analgesic activity); assay type: in vivo; conditions: 10 mg/kg oral, mice, hot plate 55 °C, after 60 min
Protocol: This method was used to evaluate the central analgesic activity by determination of the delay in the latency time of pain response. […] After 60 min, the animals were placed on a hot plate maintained at 55 ± 0.5 °C. The reaction time was recorded as the time taken by the animals to […] or lick the fore or hind paw or jump off the plate.

[8] = cited from earlier work
[9] = tested on: COX-2; conditions: cited from earlier work

Row | SMILES | IC50 [1] | IC50 [2] | SI, COX-2 selectivity index (COX-1 IC50/COX-2 IC50) [2] | melting point | Average number of ulcers [3] | Ulcer index [3] | Peripheral analgesic activity (writhing) [4] | Histopathological findings in stomach [5] | %Inhibition of paw oedema, 1h [6] | Paw thickness change mean ± SEM, 1h [6] | %Inhibition of paw oedema, 3h [6] | Paw thickness change mean ± SEM, 3h [6] | %Inhibition of paw oedema, 5h [6] | Paw thickness change mean ± SEM, 5h [6] | Central analgesic activity (delay in latency time) [7] | Gastric ulceration side effect [8] | COX-2/COX-1 selectivity (SI) [9]
1 | COc1ccc(-c2cc(-c3ccc(-n4cnnn4)cc3)[nH]c(=O)c2C#N)cc1OC [Compound 5e, 6-[4-(1H-Tetrazol-1-yl)phenyl]-4-(3,4-dimethoxyphenyl)-2-oxo-1,2-dihydropyridine-3-carbonitrile] | 7.14 µM |  | 37.57 | 272 to 274 °C | 1.00 | 1.25 | most active | affect only muscular layer of the stomach by causing corrugation and hyalinosis in some muscle bundles and reach to coagulative necrosis | 71% | 0.45 ± 0.16 mm | 42% | 0.98 ± 0.03 mm | 49% | 0.68 ± 0.08 mm | potent analgesic activities |  | 
2 | O=C1OCC(c2ccc(-c3nnn[nH]3)cc2)=C1c1ccccc1 [VI] |  |  |  |  |  |  |  |  |  |  |  |  |  |  |  | lacked the side effect of gastric ulceration | 2.11
3 | Cc1ccc(-c2cc(C(F)(F)F)nn2-c2ccc(-c3nnn[nH]3)cc2)cc1 [V] |  |  |  |  |  |  |  |  |  |  |  |  |  |  |  | lacked the side effect of gastric ulceration | 2.16

More lines, in order of falling IC50 [1], values ahead:

Row | IC50 [1] | IC50 [2] | SI, COX-2 selectivity index (COX-1 IC50/COX-2 IC50) [2] | melting point | SMILES | Average number of ulcers [3] | Ulcer index [3] | Peripheral analgesic activity (writhing) [4] | Histopathological findings in stomach [5] | %Inhibition of paw oedema, 1h [6] | Paw thickness change mean ± SEM, 1h [6] | %Inhibition of paw oedema, 3h [6] | Paw thickness change mean ± SEM, 3h [6] | %Inhibition of paw oedema, 5h [6] | Paw thickness change mean ± SEM, 5h [6] | Central analgesic activity (delay in latency time) [7] | Gastric ulceration side effect [8] | COX-2/COX-1 selectivity (SI) [9]
4 | 11.3 µM | 0.45 µM | 25.13 | 263 to 265 °C | CN(C)c1ccc(-c2cc(-c3ccc(-n4cnnn4)cc3)[nH]c(=O)c2C#N)cc1 [Compound 5d, 6-[4-(1H-Tetrazol-1-yl)phenyl]-4-[4-(dimethylamino)phenyl]-2-oxo-1,2-dihydropyridine-3-carbonitrile] | 1.25 | 1.50 | most active | Mucous degeneration in gastric glandular epithelium, thickening and hyalinosis of basement membrane, as well as eosinophilic infiltrations in submucosa | 71% | 0.45 ± 0.10 mm | 63% | 0.61 ± 0.12 mm | 43% | 0.76 ± 0.15 mm |  |  | 
5 | 7.11 µM | 0.33 µM | 21.54 | 226 to 228 °C | COc1ccc(C2CC(c3ccc(-n4cnnn4)cc3)=NN2c2ccc(S(N)(=O)=O)cc2)cc1OC (stereo not drawn) [Compound 9a, 4-{3-[4-(1H-Tetrazol-1-yl)phenyl]-5-(3,4-dimethoxyphenyl)-4,5-dihydro-1H-pyrazol-1-yl)benzenesulphonamide] | 1.25 | 2.00 | most active | sever congestion in blood capillaries and lymphocytic infiltration; also recorded: caused destructive effect on the mucosa and ulceration | 75% | 0.40 ± 0.00 mm | 39% | 1.03 ± 0.09 mm | 19% | 1.08 ± 0.20 mm |  |  | 
6 | 6.45 µM |  | 46.07 | > 300 °C | COc1cc(-c2cc(-c3ccc(-n4cnnn4)cc3)[nH]c(=O)c2C#N)cc(OC)c1OC [Compound 5f, 6-[4-(1H-Tetrazol-1-yl)phenyl]-4-(3,4,5-trimethoxyphenyl)-2-oxo-1,2-dihydropyridine-3-carbonitrile] | 1.25 | 1.25 |  | affect only muscular layer of the stomach by causing corrugation and hyalinosis in some muscle bundles and reach to coagulative necrosis | 79% | 0.33 ± 0.09 mm | 36% | 1.08 ± 0.10 mm | 30% | 0.93 ± 0.15 mm | potent analgesic activities |  | 
7 | 3.87 µM |  | 35.18 | 241 to 243 °C | COc1cc(C2CC(c3ccc(-n4cnnn4)cc3)=NN2c2ccc(S(C)(=O)=O)cc2)cc(OC)c1OC (stereo not drawn) [Compound 8b] | 0.75 | 0.75 |  | massive destruction of localised area of epithelium with formation of an erosion associated with hyalinosis and necrosis of muscular layer | 71% | 0.45 ± 0.10 mm | 48% | 0.88 ± 0.09 mm | 38% | 0.83 ± 0.17 mm | potent analgesic activities |  | 
